The values that follow come from patent publication USRE39682E1, “Farnesyl derivatives and pharmaceutical compositions containing them” (Ramot at Tel Aviv University Ltd., priority 1993, dated 2007).

The structures appear in SMILES notation.

Test [1] has as its target T1, PPMTase (Rattus norvegicus, UniProt Q9WVM4).
T1 construct: PPMTase activity in membranes obtained from four different cell lines as determined by methylation of AFC; endogenous in cells; host or cells: ras-transformed rat1 (EJ) cell membranes
Put plainly: PPMTase activity (AFC methylation) in membranes of ras-transformed rat1 cells. In kind it is biochemical. The settings on record: ras-transformed rat fibroblast membranes; for PPMTase activity: with inhibitor. The procedure:
(§1) Charles River adult male rats were used for preparation of cerebellar synaptosomal membranes. Cerebella were removed after decapitation and homogenized in 0.32M sucrose containing 50 mM Tris-HCl pH 7.4, 3 mM EDTA, 1 mM EGTA, 5 unit/ml aprotinin and 5 μg/ml pepstatin (buffer A) to yield 10% (w/v) homogenates. Nuclear fractions were obtained by 10 min. 600×g centrifugation and synaptosomal fractions were obtained by 20 mins. 14,500×g centrifugation. Membranes of the various cell types used were prepared in the above buffer A by a 60 min. spin at 100,000×g.
(§2) Pellets were resuspended in the homogenization buffer and stored at −70° C. Methylation assays were performed at 37° C. in 50 mM Tris-HCl buffer pH 7.4, using 75-125 μg protein, 25 μM [methyl-^3H]AdoMet ([…]) as a methyl donor and 150 μM AFC as a methylation substrate (prepared as a stock solution in DMSO) in a total volume of 50 μl. DMSO concentration in all assays was 4%.
(§3) Reactions were terminated after 10 min. by adding 500 μl chloroform methanol (1:1) and a subsequent addition of 250 μl H2O, mixing them and subsequently by phase separation. A portion of 125 μl of the chloroform phase was dried down at 40° C. and 200 μl of 1M NaOH/1% SDS solution were added thereto. The [^3H]methanol thus formed was counted by the vapor phase equilibrium method as described previously (Hakiai et al., Cell Mol. Neurobiol., 11, 415-431, (1991); Lenner et al., Cell Mol. Neurbiol., 12, 333 and 3351, (1992); Ben-Baruch et al., Biochem. Biophy. Res. Commun., 195, 282-288, (1993)). Typical background counts (i.e. counts of methylation with no AFC added) were 50-100 cpm while typical methylation counts with AFC as a substrate yielded 500 to 6000 cpm. Assays were performed in triplicate and background counts subtracted. Methylation of endogenous substrates, in intact cells, and [α-^32P] GTP-blot overlay assays and gel electrophoreses were performed as detailed previously (Hakiai et al., supra (1991); Lenner et al., supra (1993)).
(§4) The B16F10 melanoma cells were grown in RPMI 1640/10% fetal calf serum, 2 mM glutamine and antibiotics as for the HEC1A cells, at the density of 1×10^4 cells/well. All four types of cells were used for determining the PPMTase activity using AFC as the substrate as described above for synaptosomal membrane preparation. Usually 150 μg membranal proteins were used in the assay for a 10 min. incubation time.

Test [2] deals with human endometrial carcinoma HEC1A cells. Kind of test: Growth of HEC1A cells (cell counting). In kind it is cell-based. As to conditions: 3 days of treatment. The source says: (§5) The cell lines employed were rat1, -EJ, which are rat1 cells stably expressing Val- 12 activated human Ha-ras gene (Land H. et al., Nature, 304, 596-602, (1983)); V-raf-3T3, which are 3T3 cells stably expressing the V-raf gene (Xu, N., et al., Proc. Natl. Acad. Sci., 90, 6741-6745); RB-22, which are 3T3 cells stably expressing the rat Erb-B2 gene (Peles, et al., EMBO J., 10, 2077-2086 (1991)) CO6O cells (SV40-CHO), which are CHE cells stably expressing the SV-40 T-antigen gene (Lavi, Proc. Natl. Acad. Sci., 78, 6144-6148 (1981)); human endometrial carcinoma cell line HEC1A, which are cells that express activated K-ras (Enomoto T., Cancer Res., 50, 6139-6145; mouse B16F10 melanoma cells, rat pheochromocytoma PC12 cells, […] cells CHE and COS cells.
HEC1A, V-raf-3T3 and SV40-CHE cells were grown in Dulbecco's modified Eagle medium (DMEM) containing 10% fetal calf serum (FCS), 4 mM L-glutamine, 10 μg/ml streptomycin and 10 U/ml penicillin. Rat1 and -EJ cells were grown in the same medium except that it was supplemented with 12.5 U/ml nyostatin. RB-22 cells were grown in modified DMEM (1 mM sodium pyruvate, 20 mM sodium bicarbonate)/10% FCS containing 4 mM L-glutamine, […] streptomycin, 10 U/ml penicillin. PC-12 cells were grown in DMEM 15% FCS/5% horse serum and the above noted antibiotics.
HEC1A cells were plated in 24 well plates at a density of 5×10^3 cells per well and fed with 1 ml of medium. The cells were grown at 37° C. in a humidified atmosphere of 95%/5% air/CO2. All other cell types employed were plated in 24 well plates at a density of 2×10^3 cells per well and fed with the appropriate medium.
Cultures were treated with farnesyl derivatives or with solvent either 3 hrs following plating or one day after plating as indicated. The drugs were prepared in DMSO to yield the final desired drug (0.1-50 μM) concentration and 0.1% DMSO. Control cultures received 0.1% DMSO only. Cultures were fed on days 6, 7 and 9 of the experiment with the drugs or with solvent-containing media.
Cells were counted following 3, 7 and 10 days of beginning of treatments with drugs. For counting, cells were detached from plates with trypsin/EDTA, and collected by a low speed spin in the presence of DMEM/10% FCS. The pelleted cells were resuspended in a small volume of DMEM/10% FCS and counted under the microscope. Viability of cells was estimated by staining with (3-(4,5-dimethylthiosol-2-yl)-2,5-diphenyltetrazolium bromide (MTT) and microscopic examination of the stained and unstained cells, or spectrophotometric estimation (OD490, 590) of the total stain in each well. Non viable cells were estimated by the trypan blue exclusion method. […]

Test [3] deals with T1, PPMTase. Kind of test: PPMTase activity (AFC methylation) in membranes of non-transformed Rat-1 cells. In kind it is biochemical. The settings on record: non-transformed Rat-1 membranes; for PPMTase activity: with inhibitor. The procedure: as §1, §2, §3, §4
The test system of test [4] is V-raf transformed 3T3 cells. Kind of test: Growth of V-raf transformed cells. In kind it is cell-based. The settings on record: 25 μM.
Excerpt: as §5
HEC1A, V-raf-3T3 and SV40-CHE cells were grown in Dulbecco's modified Eagle medium (DMEM) containing 10% fetal calf serum (FCS), 4 mM L-glutamine, 10 μg/ml streptomycin and 10 U/ml penicillin. Rat1 and -EJ cells were grown in the same medium except that it was supplemented with 12.5 U/ml nyostatin. RB-22 cells were grown in modified DMEM (1 mM sodium pyruvate, 20 mM sodium bicarbonate)/10% FCS containing 4 mM L-glutamine, […] streptomycin, 10 U/ml penicillin. […]
The potent PPMTase inhibitor FTS was used to examine selectivity of the drugs towards ras-dependent growth-signaling pathways. […] Cells were counted on day 5 of the experiment.

Setting [5] is: Homo sapiens, HEC-1-A, 72 h, at 10 μM FTS or 50 μM FTA, read-out: maximal effects, inhibition of growth.

T1 sequence (Q9WVM4 whole entry): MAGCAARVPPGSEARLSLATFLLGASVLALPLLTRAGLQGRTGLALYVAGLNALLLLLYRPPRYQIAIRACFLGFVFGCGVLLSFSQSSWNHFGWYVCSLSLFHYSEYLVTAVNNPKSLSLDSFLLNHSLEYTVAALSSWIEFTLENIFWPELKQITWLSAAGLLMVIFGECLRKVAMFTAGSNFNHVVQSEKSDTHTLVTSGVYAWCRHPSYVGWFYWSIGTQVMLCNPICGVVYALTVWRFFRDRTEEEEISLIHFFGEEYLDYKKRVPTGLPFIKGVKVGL

As for `CC(C)=CCC/C(C)=C/CC/C(C)=C/CSCC(=O)O` [FTA, S-trans, trans-farnesylthioacetic acid, reference compound], on PPMTase [1], the % Inhibition (as a rule, the drop in the measured response relative to a control, in per cent) turned out to be 72% and the PPMTase activity is 1.9 pmol/min/mg protein. The “concentration of maximal effects on growth” value in test [2] was 50 µM. Besides, in test [2] (setting [5]), the Emax was approximately 50%. At PPMTase [3], the “% Inhibition” value stood at 66% and the PPMTase activity was found to be 0.9 pmol/min/mg protein.

Consider `CC(C)=CCC/C(C)=C/CC/C(C)=C/CSc1ccccc1C(=O)O` [FTS, (3,7,11-trimethyl-dodeca-2,6,10-trienyl)-2-thiobenzoic acid], for which the “% Inhibition” value on PPMTase [1] was determined as 73%; at PPMTase [3] it was 45%. The PPMTase activity on PPMTase [1] amounted to 1.8 pmol/min/mg protein; at PPMTase [3], 1.5 pmol/min/mg protein. Besides, the “effect on growth of V-raf transformed cells” value in test [4] is reported as “no effects”. The “Number of cells (% of control)” value in test [4] (Y-ref transformed 3T2, day 5) is listed as 93 ± 8 % of control. The “concentration of maximal effects on growth” value in test [2] amounted to 10 µM. For the same compound, in test [2] (setting [5]), the Emax at 10 µM was approximately 50%.
